Results as given in patent publication EP2573088A1, “Pyrano[3,2-c]benzopyran-6(2h)-one derivatives and uses thereof” (Prous Institute for Biomedical Research, S.A., priority 2011, dated 2013).

Columns and labels:
[1] = system: fed mice; experiment: Blood glucose after i.p. glucose challenge, fed mice; type: in vivo
Method: (§1) Male C57BL/6 mice weighing 25 ± 3 g were provided by Harlan. Space allocation for five animals was 29 x 18 x 13 cm. All animals were maintained in a controlled temperature (21-23 °C) and humidity (50-70%) environment on a 12-hour light/dark cycle for 7 days in the animal facilities. Free access to standard chow for mice and reverse osmosis water were given. All aspects of this work, including housing, experimentation and disposal of animals, were performed in general accordance with the Guide for the Care and Use of Laboratory Animals.
(§2) Then, the blood glucose concentrations were measured at 15, 30, 60, 90, and 120 minutes after the glucose injection (Glucometer and Reactive Strips Accu-chek Aviva, Roche) [Zhang, W. et al. Pharmacol Res 2011, 63: 284-93]. Free access to food and water was maintained throughout the study. Under fasting conditions, mice were deprived of food 4 hours before and during the experiment and the experimental protocol was followed as detailed above.

[2] = system: human platelet-rich plasma; experiment: Platelet aggregation inhibition after induction by ADP, arachidonic acid or collagen; type: cell-based; details: different concentrations
Method: Platelet aggregation inhibition was evaluated after the induction of aggregation by ADP, arachidonic acid or collagen in human platelet-rich plasma [Bertele, V. et al. Science 1983, 220(4596): 517-9; Knöfler, R. et al. Thromb Res 1995, 77(1): 69-78]. […] Platelet function was additionally tested under rheological conditions in human whole blood using a platelet function test device, PFA-100 [Frossard, M. et al. Circulation 2004, 110(11): 1392-7; Hennekens, C.H. et al. Circulation 2004, 110(12): 1706-8]. An increase (26%-30%) in aggregation time in the presence of collagen-epinephrine was noted, indicating platelet aggregation-inhibitory activity for compounds in examples 1 to 12 at 1 µM concentration under rheological conditions.

[3] = system: fasted mice; experiment: Blood glucose after i.p. glucose challenge, fasted mice; type: in vivo; details: oral
Method: as §1, §2

[4] = system: streptozotocin-induced diabetic mice; experiment: Blood glucose in mice with streptozotocin-induced diabetes; type: in vivo; details: for reduction in blood glucose concentrations when compared to basal values: range over the experimental time points
Method: as §1
In mice with streptozotocin-induced diabetes [Tokunaga, H. et al. Eur J Pharmacol 1983, 87(2-3): 237-43], diabetes was induced with a […] i.p. injection of streptozotocin (Sigma) 50 mg/kg body weight, freshly dissolved in NaCl 0.9% during 5 consecutive days. After 4 weeks, those mice (80%) with basal glucose concentrations under fasting (4 hours) conditions above 220 mg/dL were included in the assay. The test substance, positive and negative controls were administered by the p.o. route 30 minutes before measurement of the blood glucose concentrations at 0, 15, 30, 60, 90, and 120 minutes. Free access to water was maintained throughout the study.

[5] = Maximum tolerated dose after single oral administration; details: mouse, in vivo, mice, observed up to 72 hours
Method: The maximum tolerated dose (MTD) was assessed in mice after single oral administration of high doses of Example 1 of 1 g/kg, 500 mg/kg, and 100 mg/kg, and the development of acute toxic symptoms (mortality, convulsions, tremors, muscle relaxation, sedation, etc.) and autonomic effects (diarrhea, salivation, lacrimation, vasodilation, piloerection, etc.) was observed during the first hour. The animals were then observed again for mortality at 3, 24, 48, and 72 hours. The mice were sacrificed if they lost more than 20% of their body weight or if there were other signs of significant toxicity. The MTD obtained for Example 1 in the above experimental conditions was 1 g/kg.

[6] = system: Syrian hamster embryo (SHE) cell, BALB/c 3T3, and CH310T1/2; experiment: Cell transformation assays (CTAs), carcinogenic assessment; type: cell-based; details: CTA assays, compared with structurally related compounds with carcinogenic potential
Excerpt: Carcinogenic potential may arise from a direct genotoxic effect or nongenotoxic effects. Epigenetic factors may contribute to tumor cell proliferation by routes other than a direct interaction with DNA. In that case, xenobiotics may act as cancer promoters in species other than those employed in preclinical drug development. Cell transformation assays (CTAs), including the main in vitro CTAs --the Syrian hamster embryo (SHE) cell, BALB/c 3T3, and CH310T1/2 assays-- are experimental tools reviewed by the OECD [Environment, Health and Safety Publications, Series on Testing and Assessment nº 31. Detailed review paper on cell transformation assays for detection of chemical carcinogens. November 28, 2006].

CCCCNC(=O)NS(=O)(=O)c1ccc(C)cc1 [Tolbutamide, reference compound]
decrease in blood glucose concentrations ([1]; fed, positive control, dose not given, 90 minutes after glucose challenge): 7.76% | decrease in blood glucose concentrations ([1]; fed, positive control, dose not given, 120 minutes after glucose challenge): 3.22%

CCc1ccc(Cc2ccc3c(c2)[C@@H]2O[C@H](CO)[C@@H](O)[C@H](O)[C@H]2OC3=O)cc1 [Example 1, (2R,3S,4S,4aR,10bS)-9-(4-Ethylbenzyl)-3,4-dihydroxy-2-(hydroxymethyl)-3,4,4a,10b-tetrahydropyrano[3,2-c][2]benzopyran-6(2H)-one]
inhibition of platelet aggregation [2]: inhibition of platelet aggregation | decrease in blood glucose concentrations ([1]; fed mice, oral, after i.p. glucose challenge (1 g/kg)): decrease in blood glucose concentrations | reduction in blood glucose concentrations when compared to basal values ([1]; fed, single oral dose 3 mg/kg, 90 minutes after glucose challenge): 12.01% | reduction in blood glucose concentrations when compared to basal values ([1]; fed, single oral dose 3 mg/kg, 120 minutes after glucose challenge): 9.63% | reduction in blood glucose concentrations when compared to basal values ([1]; fed, single oral dose 30 mg/kg, 90 minutes after glucose challenge): 6.04% | reduction in blood glucose concentrations when compared to basal values ([1]; fed, single oral dose 30 mg/kg, 120 minutes after glucose challenge): 4.71% | reduction in blood glucose concentrations when compared to basal values ([1]; fed, single oral dose 300 mg/kg, 90 minutes after glucose challenge): 2.52% | reduction in blood glucose concentrations when compared to basal values ([1]; fed, single oral dose 300 mg/kg, 120 minutes after glucose challenge): 10.2% | decrease in blood glucose concentrations ([3]; fasted mice, after i.p. glucose challenge (1 g/kg)): decrease in blood glucose concentrations | hypoglycemic activity ([3]; fasted, 0.3 mg/kg): hypoglycemic activity | hypoglycemic effect ([4]; 0.1 mg/kg): No relevant hypoglycemic effect | reduction in blood glucose concentrations when compared to basal values ([4]; 3 mg/kg oral): 7-22% | reduction in blood glucose concentrations when compared to basal values ([4]; 30 mg/kg oral): 7-26% | reduction in blood glucose concentrations when compared to basal values ([4]; 300 mg/kg oral): 18-42% | decrease in blood glucose concentrations ([4]; mice with streptozotocin-induced diabetes, oral): decrease in blood glucose concentrations | MTD at 72 h [5]: 1000 mg/kg | carcinogenic potential [6]: no carcinogenic potential
